Results as given in PMC2995924 (International journal of high throughput screening, 2010).
Read-outs that look alike come from different tables or passages of the source.

What was measured:
[1] = target: T1, rat S100B (Rattus norvegicus, UniProt P04631); test: Fluorescence polarization competition assay; type: binding
T1 sequence (P04631 1-92): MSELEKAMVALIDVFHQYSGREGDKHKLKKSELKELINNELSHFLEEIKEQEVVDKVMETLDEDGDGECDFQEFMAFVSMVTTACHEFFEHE

[2] = target: T2, Ca2+-bound S100B (Rattus norvegicus, UniProt P04631); test: NMR 1H-15N HSQC chemical shift perturbation secondary screen; type: binding; details: for NMR (confirmed to bind S100B via NMR HSQC experiments): 10-fold excess compound versus S100B (100 μM; 10 mM Ca2+)
T2 sequence (P04631 1-92): T1 sequence (P04631 1-92)

[3] = target: T3, S100B (Rattus norvegicus, UniProt P04631); test: Binding monitored by change in the compound's intrinsic fluorescence
T3 sequence (P04631 1-92): T1 sequence (P04631 1-92)

[4] = target: TAMRA-TRTK; test: fluorescence polarisation
[5] = target: T1, rat S100B; test: Fluorescence polarization binding assay of labeled peptides; details: Ca2+-S100B

Molecule	IC50 [1] [µM]	Kd [1] [µM]	NMR (confirmed to bind S100B via NMR HSQC experiments) [2]	other results
CN(C)CCCN1c2ccccc2Sc2ccc(Cl)cc21 [SC0067, chlorpromazine]	2220 ± 1360	697 ± 428	–	–
C[CH2][Hg][S]c1ccccc1C(=O)[O-].[Na+] [SC0332, thimerosal]	–	–	Yes	Kd ([1]; calculated from FPCA IC50 with the equation of Nikolovska-Coleska et al): 55.2 ± 5.1 µM
C[n+]1cc2c3c(ccc2c2ccc4cc5c(cc4c21)OCO5)OCO3 [SC0844, sanguinarine]	35.9 ± 16.4	10.7 ± 4.9	Yes	Kd [3]: 5.8 µM
O=C(O)c1ccccc1S [thiosalicylic acid]	–	–	–	Chemical shift perturbations of the HSQC NMR spectra ([2]; 1 mM compound added to 100 μM S100B, fast-exchange regime): significant chemical shift perturbations; Inhibition of TAMRA-TRTK binding in the FPCA ([1]; even at 2.5 mM compound): did not significantly inhibit
C68/84S mutant rat S100B (natural protein)	–	–	–	Kd [4]: 2.42 µM
FITC-p53_367–393: FITC-labeled peptide of human p53 residues 367–393	–	–	–	Affinity (KD) of FITC-labeled peptide compared with unlabeled version [5]: significantly higher affinity than the unlabeled version
